Data set [1] has as its target T1, PPARγ (Homo sapiens, UniProt P37231).
T1 sequence (P37231 238-503 limits assumed): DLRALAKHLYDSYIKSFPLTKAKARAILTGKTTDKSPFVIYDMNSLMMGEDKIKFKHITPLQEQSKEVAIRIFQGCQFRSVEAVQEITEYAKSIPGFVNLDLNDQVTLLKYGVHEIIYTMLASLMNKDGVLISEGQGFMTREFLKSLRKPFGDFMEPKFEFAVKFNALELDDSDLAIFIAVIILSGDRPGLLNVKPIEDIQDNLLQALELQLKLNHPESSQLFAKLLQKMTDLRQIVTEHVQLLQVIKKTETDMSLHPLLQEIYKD
Description: PPARγ-dependent transactivation assay in HEK293T cells. Type of data set: cell-based. Further details: the vector pFA-PPARγ-LBD-GAL4-DBD encoding the hybrid protein PPARγ-LBD-GAL4-DBD; expressed in transfected cells; host or cells: HEK293T cells; (transient transfection). Particulars: for antagonistic effects on the time-course of the response to agonist stimulation: 10 μM compound, 1 μM rosiglitazone; for inhibition of the rosiglitazone-induced transactivation of PPARγ: 1 or 10 μM compound with 0.1-10 μM rosiglitazone. The method, then:
For the PPARγ-dependent transactivation assay, 1×10^4 HEK293T cells per well were seeded in 96-well plates and cultured overnight as described above to allow attachment of the HEK293T cells. The next day, the HEK293T cells were transiently transfected using the JetPRIME™ transfection reagent (PEQLAB Biotechnologie GmbH, Erlangen, Germany), as described by the manufacturer, with 0.01 μg per well pFA-PPARγ-LBD-GAL4-DBD, kindly provided by Prof. Dr. Manfred Schubert-Zsilavecz (Institute of Pharmaceutical Chemistry, Department of Biochemistry, Chemistry and Pharmacy, Goethe-University Frankfurt am Main, Germany), 0.09 μg per well pFR-Luc (Stratagene, La Jolla, USA) and 0.0005 μg per well pRL-CMV (Promega GmbH, Mannheim, Germany). After 4 h, the transfection medium was replaced and the HEK293T cells were cultured in fresh growth medium for another 24 h. For the transient transfection of 1×10^6 HuT-78 cells and Jurkat T cells per well, the SuperFect™ transfection reagent (QIAGEN GmbH, Hilden, Germany) was used as described by the producer with 0.2 μg per well pFA-PPARγ-LBD-GAL4-DBD, 0.8 μg per well pFR-Luc and 0.05 μg per well pRL-CMV. After 24 h, 1 ml fresh growth medium was added and the cells were cultured for another 48 h. The PPARγ-dependent transactivation assay in HEK293T cells using a 96-well plate format was performed in quadruple and in HuT-78 cells and Jurkat T cells using a 12-well plate format in triplicate.
(§1) The PPARγ-dependent transactivation assay is based on the vector pFA-PPARγ-LBD-GAL4-DBD encoding the hybrid protein PPARγ-LBD-GAL4-DBD and the reporter vector pFR-Luc, carrying a GAL4-responsive element in front of the Firefly luciferase gene. These two vectors were co-transfected, as described above, in combination with the control vector pRL-CMV, encoding Renilla luciferase, to normalize Firefly luciferase activity for transfection efficiency. […] Transactivation was analysed using a 96-well plate format in a Mithras LB940 multimode reader (Berthold Technologies, Bad Wildbad, Germany). The IC50 value for MTTB was determined by fitting the data to a sigmoidal dose-response curve using the GraphPad Software Prism (La Jolla, USA).
Firefly luciferase luminescence values and control Renilla luciferase luminescence values were determined in each sample. The ratios of Firefly to Renilla luciferase luminescence were used to normalize luciferase activity values.

Data set [2] concerns HEK293T cells. Description: Intracellular accumulation by LC-MS/MS, HEK293T cells. Format: in vitro ADME, human. An excerpt: (§2) Accumulation was expressed as a percentage of the ratio of intracellular to extracellular concentration (I/E).
For data set [3], the system named is HuT-78 cells. Description: Intracellular accumulation by LC-MS/MS, HuT-78 cells. Type of data set: in vitro ADME, human.
From the text: as §2

The subject of data set [4] is Jurkat T cells. Description: Intracellular accumulation by LC-MS/MS, Jurkat T cells. Type of data set: in vitro ADME.
From the text: as §2

Data set [5] has as its system HEK293T cells. Description: Cell viability, MTT assay, HEK293T cells. Type of data set: cell-based, human. Conditions: 24 h. How it is done: (§3) HuT-78 cells, Jurkat T cells and HEK293T cells, were seeded in 96-well plates at a density of 5×10^4 cells per well and cultured overnight as described above to allow attachment of the HEK293T cells. […] As control, DMSO alone was used. After 24 h stimulation, 3-(4, 5-dimethylthiazol-2-yl)-2, 5-diphenyltetrazolium bromide (MTT) solution (5 mg ml-1 in phosphate buffered saline (PBS)) was added and the cells were incubated for two more hours at 37° C. (Mosmann, 1983). Afterwards, the cells were lysed with MTT lysis buffer. Following cell lysis, cell viability was measured at an absorbance of 560 nm in a Mithras LB940 multimode reader. The cell viability studies using a 96-well plate format were performed in octet.
(In general: Tetrazolium assays rely on reduction of a dye to a coloured formazan, in cell work by metabolically active cells.)

For data set [6], the system named is HuT-78 cells. Description: Cell viability, MTT assay, HuT-78 cells. Type of data set: cell-based, human. How it is done: as §3
The target of data set [7] is T1, PPARγ. Description: PPARγ-dependent transactivation assay in Jurkat T cells. Particulars: for inhibition of the rosiglitazone-induced transactivation of PPARγ / agonistic effects (transactivation of PPARγ by the compound alone): 24 h; for inhibition of the rosiglitazone-induced transactivation of PPARγ: 1 or 10 μM compound with 0.1-10 μM rosiglitazone. Type of data set: cell-based. Further details: the vector pFA-PPARγ-LBD-GAL4-DBD encoding the hybrid protein PPARγ-LBD-GAL4-DBD; expressed in transfected cells; host or cells: HEK293T cells; Jurkat T cells (transient transfection). How it is done: as §1, with “Dr. […] Schubert-Zsilavecz (Institute of Pharmaceutical Chemistry, Department of Biochemistry, Chemistry and Pharmacy, Goethe-University Frankfurt am Main, Germany), 0.09 μg per well pFR-Luc (Stratagene, La Jolla, USA) and 0.0005 μg per well pRL-CMV (Promega GmbH, Mannheim, Germany). After 4 h, the transfection medium was replaced and the HEK293T cells were cultured in fresh growth medium for another 24 h. […] After 24 h, 1 ml fresh growth medium was added and the cells were cultured for another 48 h. The PPARγ-dependent transactivation assay in HEK293T cells using a 96-well plate format was performed in quadruple and in HuT-78 cells and Jurkat T cells using a 12-well plate format in triplicate. The PPARγ-dependent” for “The PPARγ-dependent”

For data set [8], the system named is Jurkat T cells. Description: Cell viability, MTT assay, Jurkat T cells. Type of data set: cell-based. The method, then: as §3
The mark [9] stands for this setting: HEK293T cells, 24 h, compound alone.

A value given as a limit tells only on which side of the number the result lay.

Take `CC(C)C[C@H](NC(=O)OCC1c2ccccc2-c2ccccc21)C(=O)O` [FMOC-L-leucine, N-(9-fluorenylmethoxycarbonyl)-L-leucine]: on PPARγ [1] (HEK293T cells), the “antagonistic effects on the time-course of the response to agonist stimulation” value (“antagonistic effects on the time-course” for short) is recorded as “non-existent antagonistic effects”. The “agonistic effects (transactivation of PPARγ by the compound alone)” value at PPARγ [1] (setting [9]) is reported as “no agonistic effects”.

For `O=C(Nc1ccccc1)c1cc([N+](=O)[O-])ccc1Cl` [GW9662, 2-chloro-5-nitrobenzanilide], the “intracellular accumulation, fold lower compared to MTTB” value with HEK293T cells [2] (10 μM) amounted to 10 fold. In addition, the “intracellular accumulation, fold less than that of MTTB” value in the data set with HuT-78 cells [3] (10 μM) and in the data set on Jurkat T cells [4] (10 μM) was “about 100 fold” in each case. Besides, the “antagonistic effects on the time-course” value at PPARγ [1] (HEK293T cells) was “inhibited the time-course of the response to agonist”. Moreover, the “inhibition of the rosiglitazone-induced transactivation of PPARγ” value at PPARγ [1] (HEK293T cells, 24 h) is “full antagonism”; on PPARγ [7], “full antagonism”. Also, the “agonistic effects (transactivation of PPARγ by the compound alone)” value on PPARγ [1] (setting [9]) and on PPARγ [7] (compound alone) was “surprisingly high agonistic effects” throughout. Besides, the “concentrations without cytotoxic effects / loss of viability” value with HEK293T cells [5] is at most 30 µM. In addition, the “concentrations at which clearly cytotoxic” value is “above 20 μM” with HuT-78 cells [6] (MTT, 24 h) and over 30 µM in the data set on Jurkat T cells [8] (MTT, 24 h). The “PPARγ transactivation by the compound alone” value on PPARγ [7] (compound alone, dose-independent) is reported as “approximately 3 fold”.

On to `O=C1NC(=O)C(Cc2ccc3cc(OCc4ccccc4F)ccc3c2)S1` (centres unmarked) [MCC-555, netoglitazone], for which the “antagonistic effects on the time-course” value on PPARγ [1] (HEK293T cells) is “non-existent antagonistic effects”. Moreover, the “concentrations that transactivated PPARγ” value at PPARγ [1] (setting [9]) is listed as “above 1 μM”.

Usually IC50 stands for the concentration needed to halve the response being measured. `CCCC/C(=C\c1cc(OCc2ccc3nc(C(F)(F)F)cc(OC)c3c2)ccc1OCc1ccc(C(F)(F)F)cc1)C(=O)O` [MTTB, (E)-2-(5-((4-methoxy-2-(trifluoromethyl)quinolin-6-yl)methoxy)-2-((4-(trifluoromethyl)benzyl)oxy)-benzylidene) hexanoic acid]: the “uptake, fold higher than of GW9662” value in the data set with HEK293T cells [2] worked out at 10 fold. For the same compound, the “intracellular accumulation (intracellular as percentage of extracellular concentration)” value is “approximately 25%” with HEK293T cells [2] (10 μM, after 24 h); “approximately 10%” in the data set with HuT-78 cells [3] (10 μM, after 24 h); “approximately 10%” in the data set with Jurkat T cells [4] (10 μM, after 24 h). The “intracellular accumulation, fold higher as compared to GW9662” value in the data set with HuT-78 cells [3] and with Jurkat T cells [4] was “approximately 100 fold” in each case. In addition, the IC50 at PPARγ [1] was determined as 4.3 µM. Further, the “inhibition of the rosiglitazone-induced transactivation of PPARγ” value was “dose-dependent inhibition” on PPARγ [1] (HEK293T cells, 24 h) and “dose-dependent inhibition” at PPARγ [7]. The “agonistic effects (transactivation of PPARγ by the compound alone)” value at PPARγ [1] (setting [9]) and at PPARγ [7] (compound alone) was “no agonistic effect” each time. In addition, the “concentrations without cytotoxic effects / loss of viability” value with HEK293T cells [5] is given as “up to 10 μM”. For the same compound, the “cytotoxicity in contrast to GW9662” value with HuT-78 cells [6] and with Jurkat T cells [8] was “less cytotoxicity” throughout. In addition, the “concentrations without cytotoxic effects” value is listed as “up to 10 μM” in the data set with HuT-78 cells [6] (MTT, 24 h) and “up to 10 μM” in the data set on Jurkat T cells [8] (MTT, 24 h).

Values taken from patent US10093628B2, “Competitive PPAR-gamma antagonists” (FRAUNHOFER-GESELLSCHAFT ZUR FÖRDERUNG DER ANGEWANDTEN …, priority 2014, dated 2018).
